Data taken from ChEMBL document CHEMBL1127902, “Synthesis of -estradiol-3-benzoate-17-(succinyl-12A-tetracycline): A potential bone-seeking estrogen” (Bioorg Med Chem Lett, 1994).

assay: Percent of compound bound to bone mineral hydroxylapatite was determined […]; conditions: Bone element

Q: With `CN(C)[C@@H]1C(O)=C(C(N)=O)C(=O)[C@@]2(O)C(O)=C3C(=O)c4c(O)cccc4[C@@](C)(O)[C@H]3C[C@@H]12` as the compound, how does the Binding read?
A: Its Binding is > 99%.

Q: For `C[C@]12CC[C@@H]3c4ccc(O)cc4CC[C@H]3[C@@H]1CC[C@@H]2O`, which Binding is on record?
A: The Binding was < 1%.

Q: For `CN(C)[C@@H]1C(=O)C(C(N)=O)=C(O)[C@@]2(OC(=O)CCC(=O)O[C@H]3CC[C@H]4[C@@H]5CCc6cc(OC(=O)c7ccccc7)ccc6[C@H]5CC[C@]34C)C(O)=C3C(=O)c4c(O)cccc4[C@@](C)(O)C3CC12` (some centres undefined), which Binding is on record?
A: The Binding was > 99%.

Q: Which Binding does the source give for `C[C@]12CC[C@@H]3c4ccc(OC(=O)c5ccccc5)cc4CC[C@H]3[C@@H]1CC[C@@H]2O` here?
A: Its Binding is < 1%.
